“Also recorded” adds a separate entry of the source.
Columns and labels:
[1] = test system: rats following ligation of spinal nerves; conditions: cited from earlier work
[2] = test system: models of inflammatory pain in rodents; conditions: systemic delivery; cited from earlier work
[3] = test system: osteoarthritis pain model; test: osteoarthritis pain model; assay type: in vivo
[4] = test system: human CB2 receptor versus the human CB1 receptor; test: selectivity for the human CB2 receptor versus the human CB1 receptor
Protocol: In some embodiments, an agonist compound that is used in the methods described herein has selectivity for the CB2 Receptor. In some embodiments, selectivity refers to the relative in vitro potency of a compound for the CB2 receptor and another receptor. For example, in some embodiments, selectivity refers to the relative in vitro potency of a compound for the CB2 receptor versus the CB1 receptor. In some embodiments, in vitro potency is measured using a second messenger assay. In some embodiments, in vitro potency is measured using a cAMP assay. In some embodiments, selectivity is determined by comparing data generated using a β-arrestin assay. In some embodiments, selectivity is determined by comparing data generated from a GTP-yS binding assay. In some embodiments, selectivity is determined by comparing data generated from a reporter gene assay. In some embodiments, selectivity is determined by comparing data generated for a biomarker. In some embodiments, in vitro potency is quantified as EC50. In some embodiments, selectivity refers to the relative binding affinity of an agonist for the CB2 receptor and another receptor. In some embodiments, binding affinity is quantified as Ki.

CB2 receptor [5] = molecular target: T1, CB2 receptor (Homo sapiens, UniProt P34972); test: CB2 receptor agonism; assay type: cell-based
Text: Other CB2 receptor agonist compounds can be identified e.g., using the Homogeneous Time-Resolved Fluorescence (HTRF®) Assay for direct cAMP measurement (Gabriel et al., ASSAY and Drug Development Technologies, 1:291-303, 2003) (see, e.g., Example 2 of WO2011/025541). Compounds can be screened for agonism of the CB2 receptor (e.g., human CB2 receptor) using the HTRF® assay for direct cAMP measurement (assay kit sold by Cisbio-US, Inc., Bedford, Mass.; Catalog #62AM4PEC) in recombinant CHO-K1 cells stably transfected with the CB2 receptor. […] The specific signal (i.e., fluorescence resonance energy transfer, FRET) is inversely proportional to the concentration of unlabeled cAMP in the standard or sample. An agonist of the CB2 receptor is detected in the HTRF® assay for direct cAMP measurement when a compound decreases cAMP concentration. […]
CB2 receptor agonist compounds can also be identified using the DiscoveRx PathHunter β-arrestin assay which measures the β-arrestin binding to the CB2 receptor upon its activation (see, e.g., Example 3 of WO2011/025541). […] Binding of β-arrestin to the activated GPCR causes the complementation of the two enzyme fragments, forming an active β-galactosidase enzyme which can be measured using the chemiluminescent PathHunter Flash Detection Kit (DiscoveRx, Fremont, Calif.: catalog #93-0001).

preclinical animal model = preclinical animal model studies, cardiovascular effects; assay type: in vivo
CB2 receptor [6] = molecular target: T1, CB2 receptor; test: internalization of the CB2 receptor in a cell; assay type: cell-based
Text: In some embodiments, the selective CB2 receptor agonist increases internalization of the CB2 receptor in a cell to at least 75%, at least 80%, at least 85%, at least 90%, at least 95%, at least 96%, at least 97%, at least 98%, or at least about 99% the level of internalization that would occur if the cell were contacted with CP55,940. In some embodiments, the CB2 receptor agonist that increases internalization of the CB2 receptor to at least 90% of CP55,940 is selected from: Compound B, Compound E, Compound G, and Compound H. CP55,940 has the following chemical structure: […]
(§1) Receptor internalization can be measured using a number of methods, including but not limited to measuring a loss of labeled receptor from the cell surface (e.g., using flow cytometry) measuring the appearance of receptors internalized in the cell (e.g., in characteristic punctate intracellular vesicles), and/or measuring the return of receptors recycled to the cell surface. For example, the number, density, and/or staining intensity of granules in the cell can be quantified. Receptor internalization can be measured using any appropriate method known to those of skill in the art. […]

healthy human subjects [7] = test: phase 1a single ascending dose clinical trial; assay type: in vivo
Protocol: A phase 1a randomized, double-blind, placebo-controlled single ascending dose clinical trial was performed in 56 healthy human subjects to assess the safety, tolerability, and pharmacokinetics of APD371 (Compound B). Doses of 10 mg, 20 mg, 30 mg, 60 mg, 120 mg, 250 mg, and 400 mg were administered. Subjects were in the clinic for approximately 9 days (referred to as Day −2 to Day 7). Study medication (APD371 or placebo) was administered on Day 1. Each cohort included eight human subjects, six of whom were administered APD371 and two of whom were administered placebo.
(§2) Vital signs were measured for blood pressure and heart rate in the supine position after resting for five minutes. 12-lead electrocardiograms were used to measure RR, PR, QRS, QT, QTc, QTcB, and QTcF in the recumbent position after resting for 10 minutes. 5-lead electrocardiograms were used for continuous telemetry, with measurements taken during the last five minutes of a resting period of 14 minutes±1 minute in the supine position. Baseline measurements were taken prior to dosing.

rat CB2 receptor = rat CB2 receptor (Rattus norvegicus, UniProt Q9QZN9); test: CB2 receptor internalization efficacy relative to CP55,940; assay type: cell-based
Text: (§3) In certain instances, the CB2 receptor agonist compounds identified using the HTRF® assay, the PathHunter-arrestin assay, and the radioligand binding assay can be tested for CB2 receptor internalization to select those agonists that induce robust internalization of the receptor in order to maintain a sufficient level of signaling for sustained in vivo efficacy. In certain embodiments, such agonists are preferred in the methods described herein.
as §1

CB2 receptor [8] = molecular target: T1, CB2 receptor; test: as above; assay type: cell-based
Text: as §3, §1

[9] = test system: paclitaxel-induced neuropathic pain model; test: paclitaxel-induced neuropathic pain model; conditions: in vivo
healthy human subjects [10] = test: phase 1b multiple ascending dose clinical trial; assay type: in vivo
Protocol: A phase 1b randomized, double-blind, placebo-controlled multiple ascending dose clinical trial was performed in 36 healthy human subjects to assess the safety, tolerability, and pharmacokinetics of APD371 (Compound B). Doses of 50 mg three times daily (TID), 100 mg TID, and 200 mg TID were administered for 10 days. Subjects were in the clinic for approximately 17 days (referred to as Day −2 to Day 15). Study medication (APD371 or placebo) was administered TID on Days 1-10, and once on Day 11. Each cohort included 12 human subjects, nine of whom were administered APD371 and three of whom were administered placebo.
as §2

[11] = test system: painful peripheral diabetic neuropathy model; test: painful peripheral diabetic neuropathy model; conditions: in vivo
[12] = test system: human vagus nerve preparations; conditions: in vitro; cited from earlier work
[13] = test system: guinea pig vagus nerve preparations; conditions: in vitro; cited from earlier work
RPE cells = conditions: cited from earlier work
human skin = conditions: topical administration; cited from earlier work
[14] = test system: bovine nasal cartilage explants; conditions: in vitro; cited from earlier work
ApoE knockout mice = conditions: cited from earlier work
[15] = test system: mouse model for allergic contact dermatitis; conditions: subcutaneous injection; cited from earlier work
EAE mouse model = conditions: in vivo; cited from earlier work
[16] = 50, 100, 200 mg TID for 10 days

T1 sequence (P34972 whole entry): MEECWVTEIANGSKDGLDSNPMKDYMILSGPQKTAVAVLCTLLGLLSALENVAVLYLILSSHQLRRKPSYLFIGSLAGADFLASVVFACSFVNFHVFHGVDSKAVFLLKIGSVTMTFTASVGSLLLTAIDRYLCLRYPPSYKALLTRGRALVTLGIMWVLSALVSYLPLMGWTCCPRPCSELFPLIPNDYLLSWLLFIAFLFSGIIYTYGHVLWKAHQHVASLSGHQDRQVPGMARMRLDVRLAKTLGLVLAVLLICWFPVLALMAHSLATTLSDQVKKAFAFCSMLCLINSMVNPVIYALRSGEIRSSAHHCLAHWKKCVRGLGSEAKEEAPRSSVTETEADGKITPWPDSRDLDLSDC
Chain of rat CB2 receptor (Q9QZN9 whole entry): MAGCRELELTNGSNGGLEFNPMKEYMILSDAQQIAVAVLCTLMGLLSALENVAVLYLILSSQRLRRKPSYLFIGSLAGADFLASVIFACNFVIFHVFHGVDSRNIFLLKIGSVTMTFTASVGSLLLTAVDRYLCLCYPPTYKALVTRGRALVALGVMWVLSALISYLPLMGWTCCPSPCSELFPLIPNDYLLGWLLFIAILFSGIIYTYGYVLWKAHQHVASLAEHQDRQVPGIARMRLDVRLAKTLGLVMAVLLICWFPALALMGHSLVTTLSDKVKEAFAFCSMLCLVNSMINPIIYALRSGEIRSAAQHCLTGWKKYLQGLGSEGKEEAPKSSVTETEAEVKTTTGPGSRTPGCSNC

COc1ccc(C(=O)c2c(C)n(CCN3CCOCC3)c3cc(I)ccc23)cc1 [AM630]
effect on the AM1241 reversal of hypersensitivity ([1]; rat, in vivo): inhibited by treatment with the CB2-selective antagonist AM630

CN1CCCCC1Cn1cc(C(=O)c2cc([N+](=O)[O-])ccc2I)c2ccccc21 (centres unmarked) [AM1241]
tactile and thermal hypersensitivity ([1]; local (subcutaneous) or systemic administration): reverses tactile and thermal hypersensitivity
hyperalgesia [2]: suppresses hyperalgesia

CC(C)(C)[C@@H](CO)NC(=O)c1nn(-c2c[n+]([O-])ccn2)c2c1C[C@@H]1C[C@H]21 [APD371, (1aS,5aS)-2-(4-Oxy-pyrazin-2-yl)-1a,2,5,5a-tetrahydro-1H-2,3-diaza-cyclopropa[a]pentalene-4-carboxylic Acid ((S)-1-Hydroxymethyl-2,2-dimethyl-propyl)-amide]
efficacy in model of osteoarthritis pain ([3]; in vivo): sustained efficacy
duration of in vivo efficacy following dosing ([3]; osteoarthritis pain model): maintained in vivo efficacy for four hours following dosing
plasma concentrations ([3]; osteoarthritis pain model, following dosing): rapidly declining plasma concentrations
selectivity for the human CB2 receptor versus the human CB1 receptor [4]: > 1,000 fold
agonist efficacy at the CB2 receptor (CB2 receptor [5]): full CB2 receptor agonist
cardiovascular effects (preclinical animal model): Cardiovascular effects were not seen
internalization of the CB2 receptor into cells (CB2 receptor [6]): high level of internalization
systolic and diastolic blood pressure compared to baseline (healthy human subjects [7]; single ascending dose): Variations were also seen
mean change in heart rate compared to baseline (healthy human subjects [7]; single ascending dose, highest doses): increase in heart rate was seen at the highest doses; also recorded: asymptomatic mean increase in heart rate
exposure (healthy human subjects [7]; single doses 10 mg to 400 mg): Dose-responsive exposure was observed
tolerability (healthy human subjects [7]; single doses 10 mg to 400 mg): well tolerated
receptor internalization efficacy relative to CP55,940 (rat CB2 receptor): 105%
receptor internalization efficacy relative to CP55,940 (CB2 receptor [8]): 96%
efficacy in model of paclitaxel-induced neuropathic pain [9]: sustained efficacy
exposure (healthy human subjects [10]; [16]): Dose-responsive exposure was observed
most common adverse events (healthy human subjects [10]; [16]): headache and nausea
serious adverse events (healthy human subjects [10]; [16]): no serious adverse events reported
severity of adverse events (healthy human subjects [10]; [16]): mild
tolerability (healthy human subjects [10]; [16]): well tolerated with multiple dosing
drug levels relative to those needed to stimulate the CB2 receptor (healthy human subjects [10]; all doses): well above those needed to stimulate the CB2 receptor
discontinuations (healthy human subjects [10]; high-dose group): one discontinuation in the high-dose group due to an adverse event of mild thirst and somnolence
change in blood pressure (healthy human subjects [10]; multiple ascending dose): asymptomatic reductions
change in heart rate (healthy human subjects [10]; multiple ascending dose): asymptomatic reductions
efficacy in model of painful peripheral diabetic neuropathy [11]: sustained efficacy

CCCCCCC(C)(C)c1ccc([C@@H]2C[C@H](O)CC[C@H]2CCCO)c(O)c1 [CP55,940]
capsaicin-, PGE2-, and hypertonic saline-induced depolarization [12]: reduces capsaicin-, PGE2-, and hypertonic saline-induced depolarization
capsaicin-, PGE2-, and hypertonic saline-induced depolarization [13]: reduces capsaicin-, PGE2-, and hypertonic saline-induced depolarization
protection from oxidative damage (RPE cells): significantly protects RPE cells from oxidative damage

COc1ccc2c(c1)c(CCN1CCOCC1)c(C)n2C(=O)c1cccc(Cl)c1Cl [GW405833]
hypersensitivity to mechanical stimuli ([1]; administered systemically): significantly reverses hypersensitivity to mechanical stimuli

CCCCCCC(C)(C)c1cc(O)c2c(c1)OC(C)(C)[C@@H]1CC=C(CO)C[C@@H]21 [HU-210]
histamine-induced responses (human skin): reduces these histamine-induced responses
IL-1alpha-stimulated proteoglycan and collagen degradation [14]: significantly inhibit

CCCCCc1cc(O)c2c(c1)OC(C)(C)[C@@H]1CCC(C)=C[C@@H]21 [THC]
progression of atherosclerosis (ApoE knockout mice; mouse, in vivo): reduces the progression of atherosclerosis
cutaneous inflammation and pruritus (itch) [15]: reduces cutaneous inflammation and the pruritus (itch)
severity of clinical disease (EAE mouse model): significantly inhibits the severity of clinical disease

SR144528
blockade of the THC effect on atherosclerosis (ApoE knockout mice; in vitro and in vivo): completely blocks this effect
blockade of the WIN 55212-2 effect on leukocyte rolling and adhesion (EAE mouse model): blocked by the CB2-selective antagonist SR144528
